Results from patent US20250074911A1, “MACROCYCLIC BTK INHIBITORS” (Crossfire Oncology Holding B.V., priority 2021, published 2025).
Where “and” joins values, the source holds several entries; their conditions need not be identical. Equal values may be shown once.

Experiments:
BTK T316A = BTK T316A (Homo sapiens (Human), UniProt Q06187, T316A); experiment: Binding kinetics measurements (Surface Plasmon Resonance) on BTK T316A; conditions: for Tau (h) BTK T316A (Act): target residence time, SPR; for Kd: binding affinity by Surface Plasmon Resonance (SPR)
Sequence of BTK T316A (Q06187 whole entry T316A): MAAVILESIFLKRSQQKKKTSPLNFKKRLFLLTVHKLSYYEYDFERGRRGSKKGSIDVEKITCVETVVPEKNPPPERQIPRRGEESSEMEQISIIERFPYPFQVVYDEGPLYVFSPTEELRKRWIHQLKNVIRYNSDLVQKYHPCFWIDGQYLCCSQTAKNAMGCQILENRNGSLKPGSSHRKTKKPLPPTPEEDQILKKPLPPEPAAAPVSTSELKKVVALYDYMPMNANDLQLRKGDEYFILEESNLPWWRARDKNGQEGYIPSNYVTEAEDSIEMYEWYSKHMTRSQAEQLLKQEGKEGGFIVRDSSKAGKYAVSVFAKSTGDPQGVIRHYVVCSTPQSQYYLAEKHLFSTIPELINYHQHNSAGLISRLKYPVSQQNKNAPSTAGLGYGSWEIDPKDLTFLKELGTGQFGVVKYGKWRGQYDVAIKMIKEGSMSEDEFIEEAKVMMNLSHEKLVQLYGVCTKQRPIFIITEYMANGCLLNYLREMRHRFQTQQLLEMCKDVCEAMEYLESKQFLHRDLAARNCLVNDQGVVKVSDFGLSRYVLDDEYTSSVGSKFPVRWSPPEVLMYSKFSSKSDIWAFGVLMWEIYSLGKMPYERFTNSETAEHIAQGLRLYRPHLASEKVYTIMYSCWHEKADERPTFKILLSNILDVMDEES
Outline: (§1)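 Using streptavidin-captured kinase, binding was followed by SPR in 1% DMSO buffer at 22° C and 30 μl/min. Five consecutive compound injections spanned 3.16-316 nM, preceded by a blank run; data were double referenced before kinetic fitting.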

BTK T474S = BTK T474S (Homo sapiens (Human), UniProt Q06187, T474S); experiment: Binding kinetics measurements (Surface Plasmon Resonance) on BTK T474S; conditions: for residence time: SPR binding kinetics, BTK T474S, read-out: Tau (h) BTK T474S (Act), target residence time (converted); for Kd: binding affinity by Surface Plasmon Resonance (SPR)
Sequence of BTK T474S (Q06187 whole entry T474S): as the sequence (Q06187 whole entry T316A) above, with A316T, T474S counted along it
Outline: as §1

[1] = test system: wt-TMD8 diffuse large B-cell lymphoma cells; experiment: Cell proliferation assay wt-TMD8 (ATPlite, 120 hours); format: cell-based; conditions: B-cell; wt-TMD8 cells, 120 hours, ATPlite; read-out: IC50 wt-TMD8
Outline: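 Readout is percentage growth from ATPlite 1Step luminescence after 5 days (120 h) compound treatment of wt-TMD8 lymphoma cells (1600/well, RPMI-1640 + 10% FBS). Time-zero signal separates growth inhibition from cell kill; 0.3% DMSO wells without compound define maximal growth.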

BTK T474I = BTK T474I (Homo sapiens (Human), UniProt Q06187, T474I); experiment: Binding kinetics measurements (Surface Plasmon Resonance) on BTK T474I; conditions: for Kd: binding affinity by Surface Plasmon Resonance (SPR); for Tau (h) BTK T474I (Act): target residence time, SPR
Sequence of BTK T474I (Q06187 whole entry T474I): as the sequence (Q06187 whole entry T316A) above, with A316T, T474I counted along it
Outline: as §1

[2] = molecular target: full-length wt-BTK enzyme (Homo sapiens (Human), UniProt Q06187); experiment: Biochemical kinase assay wt-BTK (IMAP)
Sequence of full-length wt-BTK enzyme (Q06187 whole entry): as the sequence (Q06187 whole entry T316A) above, with A316T counted along it
Outline: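 Compound and enzyme (final 1.2 nM) were pre-incubated for 1 h at RT, after which the reaction was started with 4 μM ATP plus 50 nM fluorescein-MBP substrate peptide. After 2 h in the dark, the IMAP progressive binding reagent stopped the reaction, and phosphorylation was read by fluorescence polarization.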

REC-1 T474I cell lines = experiment: Cell proliferation assay REC-1 BTK T474I knock-in cells (ATPlite, 72 hours); format: cell-based; conditions: Homo sapiens, Rec1; 72 hours; read-out: IC50 REC-1 T474I
Outline: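 REC-1 cells carrying CRISPR knock-in mutant BTK, single-cell cloned and sequence-confirmed, were exposed to compound for 72 h and read by ATPlite luminescence. Percentage growth was calculated against the signal at the start of incubation and against untreated 0.3% DMSO wells as maximum growth.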

[3] = molecular target: full-length BTK C481S enzyme (Homo sapiens (Human), UniProt Q06187, C481S); experiment: Biochemical kinase assay BTK C481S (IMAP)
Sequence of full-length BTK C481S enzyme (Q06187 whole entry C481S): as the sequence (Q06187 whole entry T316A) above, with A316T, C481S counted along it
Outline: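 IC50 values come from IMAP fluorescence polarization after quenching with progressive binding solution. The reaction ran 2 h at room temperature in the dark with 1.2 nM full-length C481S enzyme, 7 μM ATP and 50 nM fluorescein-labelled MBP-derived peptide, following a 1 h dark pre-incubation of compound with enzyme.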

BTK C481S = BTK C481S (Homo sapiens (Human), UniProt Q06187, C481S); experiment: Binding kinetics measurements (Surface Plasmon Resonance) on BTK C481S; conditions: for Kd: binding affinity by Surface Plasmon Resonance (SPR); for Tau (h) BTK C418S (Act): target residence time for BTK C481S, SPR
Sequence of BTK C481S (Q06187 whole entry C481S): as the sequence (Q06187 whole entry T316A) above, with A316T, C481S counted along it
Outline: as §1

wt-BTK = wt-BTK (Homo sapiens (Human), UniProt Q06187); experiment: Binding kinetics measurements (Surface Plasmon Resonance) on wt-BTK; conditions: for Kd: binding affinity by Surface Plasmon Resonance (SPR); for Tau (h) wt-BTK (Act): target residence time, SPR
Sequence of wt-BTK (Q06187 whole entry): as the sequence (Q06187 whole entry T316A) above, with A316T counted along it
Outline: as §1

[4] = test system: wt-REC-1 mantle cell lymphoma cells; experiment: Cell proliferation assay wt-REC-1 (ATPlite, 72 hours); format: cell-based; conditions: 72 h; read-out: IC50 wt-REC-1
Outline: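 Luminescent viability read over 72 h, start-of-incubation signal recorded separately to separate growth from cell death. Percentage growth referenced to compound-free 0.3% DMSO wells; IC50 from 4-parameter logistic fit.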

SMILES	Tau (h) BTK T316A (Act) (BTK T316A) [h]	residence time (BTK T474S) [h]	Kd (BTK T474S) [nM]	IC50 [1] [nM]	Kd (BTK T474I)	IC50 [2] [nM]	IC50 (REC-1 T474I cell lines) [nM]	IC50 [3] [nM]	Kd (BTK C481S) [nM]	Tau (h) BTK C418S (Act) (BTK C481S) [h]	Kd (wt-BTK) [nM]	Tau (h) wt-BTK (Act) (wt-BTK) [h]	IC50 [4] [nM]	Tau (h) BTK T474I (Act) (BTK T474I) [h]	Kd (BTK T316A) [nM]
Nc1ncc2c3c1c(-c1ccc(C(=O)Nc4cc(C(F)(F)F)ccn4)cc1)nn3[C@@H]1CCC[C@H](C1)C(=O)NCCCC/C=C\C2 [Example 85b]	2.50	4.36	< 3	< 100	10 to 50 nM and < 5 nM	< 5	100 to 500	< 5	< 5	7.12	< 5	4.08	< 100		
C[C@@H]1CC(=O)N[C@@H]2CCC[C@H](C2)n2nc(-c3ccc(C(=O)Nc4cc(C#N)ccn4)cc3)c3c(N)ncc(c32)/C=C/CCO1 [Example 162]	7.64	2.02		< 100		< 5	< 100	< 5		6.32		3.41	< 100	2.05	
Nc1ncc2c3c1c(-c1ccc(C(=O)Nc4ccccn4)cc1)nn3[C@@H]1CCC[C@H](C1)C(=O)NCCCCC/C=C\C2 [Example 88b]			< 3	< 100	10 to 50 nM and < 5 nM	< 5	500 to 10000	< 5	< 5	1.44	< 5	1.37	< 100		< 5
Nc1ncc2c3c1c(-c1ccc(C(=O)Nc4cc(C(F)(F)F)ccn4)cc1)nn3[C@@H]1CCC[C@H](C1)NC(=O)CCNCC/C=C/2 [Example 33]	3.62	5.78	< 3	< 100	< 2 nM	< 5	< 100	< 5	< 5	9.96	< 5	3.46	< 100	1.26	< 5
CN1C/C=C/c2cnc(N)c3c(-c4ccc(C(=O)Nc5cc(C(F)(F)F)ccn5)cc4)nn(c23)[C@@H]2CCC[C@H](C2)NC(=O)CCC1 [Example 10]	1.76	9.46	< 3	< 100	< 2 nM	< 5	500 to 10000	< 5	< 5	6.76	< 5	6.77	< 100		< 5
Nc1ncc2c3c1c(-c1ccc(C(=O)Nc4cc(C(F)(F)F)ccn4)cc1)nn3[C@@H]1CCC[C@H](C1)NC(=O)[C@H]1CN(C/C=C/2)CCN1 [Example 141]	8.86	4.17	< 3	< 100	< 2 nM	< 5	< 100	< 5	< 5	4.45	< 5	>24	< 100	6.21	< 5
N#Cc1ccnc(NC(=O)c2ccc(-c3nn4c5c(cnc(N)c35)/C=C/CCCCCC(=O)N[C@@H]3CCC[C@@H]4C3)cc2)c1 [Example 163]	4.67	6.74		< 100		< 5	< 100	< 5		3.51		>24	< 100	4.37	
CN1C/C=C/c2cnc(N)c3c(-c4ccc(C(=O)Nc5cc(C(F)(F)F)ccn5)cc4)nn(c23)[C@@H]2CCC[C@H](C2)NC(=O)CCCC1 [Example 20]	2.01	2.75	< 3	< 100	< 2 nM	< 5	500 to 10000	< 5	< 5	1.05	< 5	2.79	100 to 1000		< 5
C[C@@H]1CCn2nc(-c3ccc(C(=O)Nc4cc(C(F)(F)F)ccn4)cc3)c3c(N)ncc(c32)/C=C/COCCC(=O)N1 [Example 71]	4.64	4.32	< 3	< 100	< 2 nM	< 5	100 to 500	< 5	< 5	4.52	< 5	7.08	< 100	0.52	< 5
Nc1ncc2c3c1c(-c1ccc(C(=O)Nc4cc(C(F)(F)F)ccn4)cc1)nn3[C@@H]1CC[C@H](C1)NC(=O)CCCCC/C=C/2 [Example 168]	3.81	> 24		< 100		< 5	< 100	< 5		6.64		3.66	< 100	3.14	
CN1C/C=C/c2cnc(N)c3c(-c4ccc(C(=O)Nc5cc(C(F)(F)F)ccn5)cc4)nn(c23)[C@@H]2CCC[C@H](C2)NC(=O)CC1 [Example 17]	3.60	8.71	< 3	< 100	< 2 nM	< 5	< 100	< 5	< 5	14.35	< 5	5.24	< 100	1.12	< 5
